Like-named read-outs stand apart in the source and are kept apart here.
Legend:
[1] = target: TEAD1 in SK-HEP1 cells (Homo sapiens (Human), UniProt P28347); experiment: TEAD degradation in SK-HEP1 cell line (immunofluorescence); format: cell-based
Outline: (§1)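 SK-HEP1 and NCI-H226 cells were treated in duplicate for 16 or 24 h at 37 °C with compound (10 points, 1:3, top 30 µM final). After fixation, TEAD1 was immunostained with anti-TEF1 and per-cell fluorescence quantified by high-content imaging. DC50 from curve fitting.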

[2] = target: TEAD1 in NCI-H226 cells (Homo sapiens (Human), UniProt P28347); experiment: TEAD degradation in NCI-H226 cell line (immunofluorescence); format: cell-based
Outline: as §1

[3] = target: TEAD1 (Homo sapiens (Human), UniProt P28347); experiment: TEAD degradation assay, 6 h time point, cell line not stated; format: cell-based; conditions: after 6 h, read-out: degradation concentration, DC50, after 6 h
Description: Degradation of TEAD isoform TEAD1 by exemplary compounds which has been determined at different time points in two different cell lines, SK-HEP1 and NCI-H226: For the assay, SK-HEP1 (ATCC HTB-52) and NCI-H226 (ATCC CRL-5826) cells were treated in duplicates with the test compounds in a 10-point dose, 1:3 dilution steps, with the top concentration starting at 30 uM (final concentration in assay). […] The primary antibody used was Anti-TEF1 (BD, 610293) and the secondary antibody used was Alexa Fluor® 488 Goat Anti-Mouse IgG (H+L) (Molecular Probes, A-11001). Finally, the cell nuclei were co-stained by Hoechst 33258 (Invitrogen, H-3569) and imaged using a high content imager. The amount of TEAD degradation was determined by quantifying the fluorescence intensity levels of Anti-TEF1 in each individual cell per well. DC50 was calculated using curve fitting software Genedata Screener. Cell media: The SK-HEP1 cells were cultured in the following media: MEM, +10% FCS, +1× GlutaMAX, +100 μM NEAA, +10 mM HEPES, +0.5% Pen/Strep. The NCI-H226 cells were cultured in the following media: RPMI 1640, +10% FBS, +1× GlutaMAX, +10 mM HEPES, +0.5% Pen/Strep.

[4] = target: hsTEAD4 (217-424) (Homo sapiens (Human), UniProt Q15561); experiment: Thermal shift measurement / Differential Scanning Fluorimetry (DSF); format: binding; conditions: 100 uM compound, 2 hours at 4° C., triplicates; read-out: ΔTm TEAD4 217-434
Description: (§2) Interaction of exemplary compounds with the various TEAD isoforms TEAD1, TEAD2, TEAD3, and TEAD4 was performed in a DSF assay. YAP-binding domains (YBD) of the four isoforms were subcloned and heterogeneously expressed in E. coli as a host. Initial purification was perfomed by using affinity tags, which got removed by overnight protease treatment. Further purification of TEAD isoforms was performed by Size-Exclusion Chromatography (SEC). Target protein containing fractions were pooled, concentrated with an Amicon (10 KDa MWCO) and quantified using the Bradford assay. Exemplary compound testing in the DSF assay for determining the shift of the TEAD isoform melting temperatures has been performed as described below: DSF was performed in MicroAmpTM EnduraPlateTM Optical 96-Well Clear Reaction Plates (Applied Biosystems, Life Technologies, California, USA) using a QuantStudio 7 Flex Real-Time PCR System (Applied Biosystems). Protein samples were briefly centrifuged before preparation. The final reaction mixture (20 μL of total volume) contained 11.8 μM of […]1 (209-426), 7.3 μM of […]2 (217-447), 7.9 μM of […]3 (216-435) or 11.7 μM of […]4 (217-424), and 2 or 4-fold of Protein Thermal ShiftTM Dye (Applied Biosystems) diluted in protein buffer-20 mM Tris pH 8.0, 150 mM NaCl (+0.5 mM TCEP for TEAD1 experiments). Prior to the addition of the dye, proteins were incubated with either 1 μL DMSO 100% (apo) or 100 uM of each exemplary compound (1 μL at 2 mM in 100% DMSO added to the […] reaction mixture) for 2 hours at 4° C. The melting curve data was recorded from 25 to 90° C. with an increment rate of 0.016° C.s^-1. Excitation and emission filters were applied for Protein Thermal ShiftTM Dye (470 nm and 520 nm, respectively) and for ROX reference dye (580 nm and 623 nm, respectively). The melting temperatures (Tm) were obtained by calculating the midpoint of each transition, using the Protein Thermal Shift SoftwareTM version 1.3. The thermal stability effect of each compound (ΔTm) was calculated by subtracting the calculated Tm in presence and absence (apo) of compound. All samples were tested in triplicates.

[5] = target: hsTEAD2 (217-447) (Homo sapiens (Human), UniProt Q15562); experiment: as above; format: binding; conditions: 100 uM compound, 2 hours at 4° C., triplicates; read-out: ΔTm TEAD2 (217-447)
Description: as §2

[6] = target: hsTEAD3 (216-435) (Homo sapiens (Human), UniProt Q99594); experiment: as above; format: binding; conditions: 100 uM compound, 2 hours at 4° C., triplicates; read-out: ΔTm TEAD3 216-435
Description: as §2

[7] = target: T1, hsTEAD1 (209-426) (Homo sapiens (Human), UniProt P28347); experiment: as above; format: binding; conditions: 100 uM compound, 2 hours at 4° C., triplicates; read-out: ΔTm TEAD1 (209-426)
Description: as §2

[8] = target: T1, hsTEAD1 (209-426); experiment: Surface Plasmon Resonance (SPR) assay; format: binding; conditions: Biacore 4000, 15° C., 1:1 Langmuir model, read-out: KD TEAD1 (209-426)
Description: The kinetic and affinity parameters of protein-exemplary compound interactions were evaluated by SPR. hsTEAD1 (209-426) was immobilized onto a CM7 (Series S) sensor chip via the standard amine coupling procedure, at 15° C. Prior to immobilization, the carboxymethylated surface of the chip was activated with 400 mM 1-ethyl-3-(3-dimethylaminopropyl)-carbodiimide and 100 mM N-hydroxysuccinimide for 10 min. hsTEAD1 (209-426) was diluted to 11 μg/mL in 10 mM Bis-Tris at pH 6.5 and immobilized on the activated surface chip for 8 and 10 min, in order to reach 6000 to 9000 response units (RU). The remaining activated carboxymethylated groups were blocked with a 7 min injection of 1 M ethanolamine pH 8.5 after which the surface chip was washed with 0.5% (w/v) sodium dodecyl sulphate and 50 mM glycine. HBS-N, which consists of 10 mM HEPES pH 7.4 and 150 mM NaCl, was used as the background buffer during immobilization. Exemplary compounds were prediluted in DMSO, diluted 1:50 in running buffer (20 mM Tris pH 7.4, 150 mM NaCl, 1 mM DTT, 5 mM MgCl2, 0.1 mM EGTA, 0.05% CHAPS) and injected at ten different concentrations using two-fold dilution series, from 100 μM to 0.2 μM. A DMSO solvent correction (1%-3%) was performed to account for variations in bulk signal and to achieve high-quality data. Interaction analysis cycles consisted of a 240 sec sample injection (30 μL/min; association phase) followed by 600 sec of buffer flow (dissociation phase).
All sensorgrams were processed by first subtracting the binding response recorded from the control surface (reference spot), followed by subtracting of the buffer blank injection from the reaction spot. All datasets were fit to a simple 1:1 Langmuir interaction model to determine the kinetic rate constants, KD. Experiments were performed on a Biacore 4000 (Cytiva, Uppsala, Sweden) at 15° C. and the interactions were evaluated using the provided Biacore 4000 evaluation software.

[9] = 16 h incubation, read-out: DC50 SK-HEP1 16 h
[10] = 24 h incubation, read-out: DC50 SK-HEP1 24 h
[11] = 24 hours, ranges, read-out: DC50 SK-HEP1
[12] = 16 h incubation, read-out: DC50 NCI-H226 16 h
[13] = 24 h incubation, read-out: DC50 NCI-H226 24 h
[14] = 24 hours, ranges, read-out: DC50 NCI-H226

TEAD1 in NCI-H226 cells, sequence (P28347 whole entry): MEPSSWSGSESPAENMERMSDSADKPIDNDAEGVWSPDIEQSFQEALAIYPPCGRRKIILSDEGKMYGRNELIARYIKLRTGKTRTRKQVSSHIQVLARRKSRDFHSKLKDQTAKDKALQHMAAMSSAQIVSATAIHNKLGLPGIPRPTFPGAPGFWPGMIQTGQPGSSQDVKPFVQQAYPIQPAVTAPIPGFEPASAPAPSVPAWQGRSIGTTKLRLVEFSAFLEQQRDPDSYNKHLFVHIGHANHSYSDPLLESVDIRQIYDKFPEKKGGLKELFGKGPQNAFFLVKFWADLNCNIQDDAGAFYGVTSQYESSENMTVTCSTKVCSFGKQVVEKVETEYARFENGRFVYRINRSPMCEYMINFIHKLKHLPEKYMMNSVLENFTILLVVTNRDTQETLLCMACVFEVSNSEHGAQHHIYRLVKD
TEAD1 in SK-HEP1 cells, sequence (P28347 whole entry): as above
T1 sequence (P28347 209-426): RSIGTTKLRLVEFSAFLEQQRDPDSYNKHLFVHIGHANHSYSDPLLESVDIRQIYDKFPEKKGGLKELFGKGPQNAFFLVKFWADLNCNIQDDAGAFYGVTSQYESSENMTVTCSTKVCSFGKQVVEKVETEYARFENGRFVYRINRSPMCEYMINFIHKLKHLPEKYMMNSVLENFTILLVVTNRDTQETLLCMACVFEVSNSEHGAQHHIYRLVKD
hsTEAD4 (217-424), sequence (Q15561 217-434): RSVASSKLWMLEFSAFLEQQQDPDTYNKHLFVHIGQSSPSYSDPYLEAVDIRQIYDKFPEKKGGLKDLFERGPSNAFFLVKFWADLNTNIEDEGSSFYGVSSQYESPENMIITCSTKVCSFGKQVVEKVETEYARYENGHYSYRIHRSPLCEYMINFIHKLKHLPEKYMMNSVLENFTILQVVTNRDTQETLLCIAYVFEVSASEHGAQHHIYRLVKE
hsTEAD3 (216-435), sequence (Q99594 216-435): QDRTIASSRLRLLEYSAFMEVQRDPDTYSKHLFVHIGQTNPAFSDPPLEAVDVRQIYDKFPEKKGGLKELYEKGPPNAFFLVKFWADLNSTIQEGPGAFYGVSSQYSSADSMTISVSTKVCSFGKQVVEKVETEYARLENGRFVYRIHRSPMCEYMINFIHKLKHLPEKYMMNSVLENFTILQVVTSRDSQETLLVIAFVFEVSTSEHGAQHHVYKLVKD
hsTEAD2 (217-447), sequence (Q15562 217-447): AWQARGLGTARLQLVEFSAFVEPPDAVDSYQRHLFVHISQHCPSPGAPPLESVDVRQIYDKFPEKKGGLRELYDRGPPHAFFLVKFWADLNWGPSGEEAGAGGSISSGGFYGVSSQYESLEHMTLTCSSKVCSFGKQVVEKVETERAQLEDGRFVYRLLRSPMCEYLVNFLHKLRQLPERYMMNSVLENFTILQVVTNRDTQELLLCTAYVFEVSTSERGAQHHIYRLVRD
TEAD1, sequence (P28347 whole entry, canonical isoform): as the sequence (P28347 whole entry) above

Structure (SMILES)	DC50 [1, 9]	DC50 [1, 10]	DC50 [1, 11]	DC50 [2, 12]	DC50 [2, 13]	DC50 [2, 14]	DC50 [3]	ΔTm at 100 µM [4]	ΔTm at 100 µM [5]	ΔTm at 100 µM [6]	ΔTm at 100 µM [7]	Kd [8]
Cc1ncsc1-c1ccc([C@H](C)NC(=O)[C@@H]2C[C@@H](O)CN2C(=O)[C@@H](NC(=O)CCCCCc2cn(CCCCCCCNC(=O)c3ccc4c(c3)c3cn(C)nc3n4-c3ccc(C(F)(F)F)cc3)nn2)C(C)(C)C)cc1 [Compound 29, (2S,4R)-1-[(2S)-3,3-dimethyl-2-(6-{1-[7-({2-methyl-8-[4-(trifluoromethyl)phenyl]-2H,8H-pyrazolo[3,4-b]indol-5-yl}formamido)heptyl]-1H-1,2,3-triazol-4-yl}hexanamido)butanoyl]-4-hydroxy-N-[(1S)-1-[4-(4-methyl-1,3-thiazol-5-yl)phenyl]ethyl]pyrrolidine-2-carboxamide]	220 nM	280 nM	100 to 1000 nM	200 nM	300 nM	100 to 1000 nM	280 nM					
Cc1ncsc1-c1ccc(CNC(=O)[C@@H]2C[C@@H](O)CN2C(=O)[C@@H](NC(=O)CCCCCC(=O)NCCOCCOCCNC(=O)c2ccc3c(c2)c2cn(C)nc2n3-c2ccc(C(F)(F)F)cc2)C(C)(C)C)cc1 [Compound 4, N-[(2S)-1-[(2S,4R)-4-hydroxy-2-({[4-(4-methyl-1,3-thiazol-5-yl)phenyl]methyl}carbamoyl)pyrrolidin-1-yl]-3,3-dimethyl-1-oxobutan-2-yl]-N′-(2-{2-[2-({2-methyl-8-[4-(trifluoromethyl)phenyl]-2H,8H-pyrazolo[3,4-b]indol-5-yl}formamido)ethoxy]ethoxy}ethyl) heptanediamide]	2000 nM	2000 nM	100 to 1000 nM	700 nM	900 nM	1000 to 3000 nM		0 °C	1 °C	0.6 °C	2.9 °C	320 nM

From patent US20250032625A1, “HETEROBIFUNCTIONAL MOLECULES AS TEAD INHIBITORS” (Merck Patent GmbH, priority 2021, published 2025)
